Results taken from patent US10442835B2, “Water-soluble rapamycin derivatives” (Zhejiang Hisun Pharmaceutical Co., Ltd., priority 2016, dated 2019).

Tests used:
[1] = Body weight of DU145 tumor nude mice; conditions: for Body Weight, mean value / Decrease rate (body weight) / Decrease in body weight: 3×/w, 4 w;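 as to all read-outs here: dosing started once xenografts reached 150-200 mm^3, with mice randomized into three groups, loss of body weight served as an indirect sign of drug toxicity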
Protocol: DU145 (the 3rd generation) tumors in the rapid proliferation stage inoculated in the axilla of nude mice were cut into tumor lumps with a size of 1 mm*1 mm*1 mm and then were inoculated subcutaneously to the right limb of nude mice using a trocar under a sterile condition. When the tumors grow to 150-200 mm^3, the mice were randomly divided into three groups and then administrated with the compounds for 4 weeks. The major diameter (a) and the minor diameter (b) of the tumors were measured 2 or 3 times a week. The tumor volume (TV) was calculated with the following equation: TV=½×a×b^2. Tumors were stripped and weighted at Day 28 and the tumor inhibition rate was calculated using the following equation: (tumor weight of control−tumor weight of experimental group)/tumor weight of control×100%.
The nude mice were divided into 3 groups with 4 mice per group when the tumors averagely grew to about 185-200 mm^3, depending on the growth regularity of the tumor and the dosage regimen.
G1: positive drug group: Everolimus (5 mg/kg, qw, 4 w, 3×/w); administration route: intragastrical administration;

[2] = Body weight of NCI-H460 tumor nude mice; conditions: for Body Weights, mean value / Decrease rate (body weight) / Decrease in body weight: everolimus 5 mg/kg, compound I-1 6.8 mg/kg, qw 4×;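 as to all read-outs here: Tumor-bearing mice dosed for 4 weeks once tumors reached 150–200 mm^3, with a vehicle control group, and body weight loss taken as an indirect sign of drug toxicity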
Protocol: NCI-H460 (the 3rd generation) tumors in the rapid proliferation stage inoculated in the axilla of nude mice were cut into tumor lumps with a size of 1 mm*1 mm*1 mm and then were inoculated subcutaneously to the right limb of nude mice using a trocar under a sterile condition. When the tumors grew to 150˜200 mm^3, the mice were divided into groups and then administrated with the compounds for 4 weeks. The major diameter (a) and the minor diameter (b) of the tumors were measured two or three times a week. The tumor volume (TV) and the relative tumor proliferation rate (T/C) were calculated. The equation for calculating the tumor volume is: TV=½×a×b^2. The equation for calculating the relative tumor proliferation rate is T/C=TRTC/CRTV (TRTC: average relative tumor volume in the treatment group; CRTV: average relative tumor volume in the vehicle control group). Tumors were stripped and weighted at Day 28 and the tumor-inhibition rate was calculated with the following equation: (tumor weight of control−tumor weight of experimental group)/tumor weight of control×100%.
Grouping method: the mice were divided into 3 groups with 6 mice per group when the tumors averagely grew to about 195 mm^3, depending on the growth regularity of the tumor and the dosage regimen. Administration route: intragastrical administration.
G1: Control (vehicle, qw 4×, iv)
G2: Positive drug group: Everolimus (5 mg/kg, qw 4×, iv)

[3] = Day 10, G3 compound I-1 1.7 mg/kg tail vein injection
[4] = Day 14, G2 compound I-1 3.4 mg/kg tail vein injection
[5] = Day 14, G3 compound I-1 1.7 mg/kg tail vein injection
[6] = Day 17, G2 compound I-1 3.4 mg/kg tail vein injection
[7] = Day 17, G3 compound I-1 1.7 mg/kg tail vein injection
[8] = Day 21, G2 compound I-1 3.4 mg/kg tail vein injection
[9] = Day 21, G3 compound I-1 1.7 mg/kg tail vein injection
[10] = Day 24, G2 compound I-1 3.4 mg/kg tail vein injection
[11] = Day 24, G3 compound I-1 1.7 mg/kg tail vein injection
[12] = Day 28, G2 compound I-1 3.4 mg/kg tail vein injection
[13] = Day 28, G3 compound I-1 1.7 mg/kg tail vein injection

## CO[C@H]1C[C@@H]2CC[C@@H](C)[C@@](O)(O2)C(=O)C(=O)N2CCCC[C@H]2C(=O)OC([C@H](C)C[C@@H]2CC[C@@H](OCCOC(=O)CSC[C@H](NC(=O)CC[C@H](N)C(=O)O)C(=O)NCC(=O)O)[C@H](OC)C2)CC(=O)[C@H](C)/C=C(\C)[C@@H](O)[C@@H](OC)C(=O)[C@H](C)C[C@@H](C)\C=C/C=C/C=C/1C (stereo partly shown) [Compound I-1]
[1]; [3]
  Body Weight, mean value: 27.18 g
  Decrease rate (body weight): −1.18%
[1]; Day 10 vs Day 0, G2 compound I-1 3.4 mg/kg tail vein injection
  Decrease in body weight: -0.85 g
[1]; Day 10 vs Day 0, G3 compound I-1 1.7 mg/kg tail vein injection
  Decrease in body weight: -0.32 g
[1]; [4]
  Body Weight, mean value: 26.59 g
  Decrease rate (body weight): −5.12%
[1]; [5]
  Body Weight, mean value: 27.69 g
  Decrease rate (body weight): −3.10%
[1]; Day 14 vs Day 0, G2 compound I-1 3.4 mg/kg tail vein injection
  Decrease in body weight: -1.30 g
[1]; Day 14 vs Day 0, G3 compound I-1 1.7 mg/kg tail vein injection
  Decrease in body weight: -0.83 g
[1]; [6]
  Body Weight, mean value: 26.34 g
  Decrease rate (body weight): −4.12%
[1]; [7]
  Body Weight, mean value: 27.81 g
  Decrease rate (body weight): −3.54%
[1]; Day 17 vs Day 0, G2 compound I-1 3.4 mg/kg tail vein injection
  Decrease in body weight: -1.04 g
[1]; Day 17 vs Day 0, G3 compound I-1 1.7 mg/kg tail vein injection
  Decrease in body weight: -0.95 g
[1]; [8]
  Body Weight, mean value: 26.84 g
  Decrease rate (body weight): −6.09%
[1]; [9]
  Body Weight, mean value: 28.10 g
  Decrease rate (body weight): −4.61%
[1]; Day 21 vs Day 0, G2 compound I-1 3.4 mg/kg tail vein injection
  Decrease in body weight: -1.54 g
[1]; Day 21 vs Day 0, G3 compound I-1 1.7 mg/kg tail vein injection
  Decrease in body weight: -1.24 g
[1]; [10]
  Body Weight, mean value: 26.58 g
  Decrease rate (body weight): −5.08%
[1]; [11]
  Body Weight, mean value: 28.12 g
  Decrease rate (body weight): −4.68%
[1]; Day 24 vs Day 0, G2 compound I-1 3.4 mg/kg tail vein injection
  Decrease in body weight: -1.29 g
[1]; Day 24 vs Day 0, G3 compound I-1 1.7 mg/kg tail vein injection
  Decrease in body weight: -1.26 g
[1]; [12]
  Body Weight, mean value: 26.96 g
  Decrease rate (body weight): −6.57%
[1]; [13]
  Body Weight, mean value: 28.27 g
  Decrease rate (body weight): −5.26%
[1]; Day 28 vs Day 0, G2 compound I-1 3.4 mg/kg tail vein injection
  Decrease in body weight: -1.66 g
[1]; Day 28 vs Day 0, G3 compound I-1 1.7 mg/kg tail vein injection
  Decrease in body weight: -1.41 g
[1]; injection administration of compound I-1 (3.4 and 1.7 mg/kg), judged from body weight
  toxic and side effect: does not result in obvious toxic and side effect
[2]; Day 0
  Body Weights, mean value: 26.20 g
[2]; Day 3
  Body Weights, mean value: 25.49 g
  Decrease rate (body weight): 2.73%
[2]; Day 3 vs Day 0
  Decrease in body weight: 0.72 g
[2]; Day 7
  Body Weights, mean value: 26.79 g
  Decrease rate (body weight): −2.23%
[2]; Day 7 vs Day 0
  Decrease in body weight: -0.58 g
[2]; Day 10
  Body Weights, mean value: 26.20 g
  Decrease rate (body weight): 0.00%
[2]; Day 10 vs Day 0
  Decrease in body weight: 0.00 g
[2]; Day 14
  Body Weights, mean value: 27.74 g
  Decrease rate (body weight): −5.87%
[2]; Day 14 vs Day 0
  Decrease in body weight: -1.54 g
[2]; Day 17
  Body Weights, mean value: 27.84 g
  Decrease rate (body weight): −6.24%
[2]; Day 17 vs Day 0
  Decrease in body weight: -1.64 g
[2]; Day 21
  Body Weights, mean value: 28.42 g
  Decrease rate (body weight): −8.46%
[2]; Day 21 vs Day 0
  Decrease in body weight: -2.22 g
[2]; Day 24
  Body Weights, mean value: 28.09 g
  Decrease rate (body weight): −7.20%
[2]; Day 24 vs Day 0
  Decrease in body weight: -1.89 g
[2]; Day 28
  Body Weights, mean value: 29.00 g
  Decrease rate (body weight): −10.68%
[2]; Day 28 vs Day 0
  Decrease in body weight: -2.80 g
[2]; judged from body weight, compound I-1 6.8 mg/kg vs everolimus 5 mg/kg
  toxic and side effect in vivo: significantly lower than that of everolimus
